Among the data in patent US9693997B2, “Antiviral compounds” (priority 2013, dated 2017) are EC50 values, retold here.

Experiment in all cases: microbe, parasite or virus in culture
In assay [1] the test system is Pseudotyped HCV GT1b particles (HCVpp), entry into Huh7-high CD81 cells. Type of assay: cell-based, HCV GT1b Con1 strain. The note with it: Hepatitis C virus, GT1B, 72 h, read-out: HCVpp GT-1b (EC50, μM).
The test system of assay [2] is pseudotyped VSV G particles (VSVpp) in Huh7-high CD81 cells. Type of assay: cell-based, vesicular stomatitis virus. The note with it: Vesicular stomatitis virus, 72 h, read-out: VSVpp (EC50, μM).
Assay [3] concerns Pseudotyped HCV GT1a particles (HCVpp), entry into Huh7-high CD81 cells. Type of assay: cell-based, HCV GT1a H77 strain. The following applies: Hepatitis C virus, 72 h, read-out: HCVpp GT-1a (EC50, μM).

Structures are written as SMILES.

As usually defined, the EC50 is the concentration that produces a half-maximal response. For the compound `Nc1nc(Nc2cc(Cl)c(-c3ccc(OC(F)(F)F)cc3)c(Cl)c2)n[nH]1` [Compound 91, N-3-(2,6-Dichloro-4′-trifluoromethyoxy-biphenyl-4-yl)-1H[1,2,4]triazole-3,5-diamine], the values for the EC50 in assay [1], in assay [2] and in assay [3] were 1.13 µM, 23.3 µM and 0.065 µM, respectively.

As for `Nc1nc(Nc2cc(Cl)c(-c3ccc(S(=O)(=O)N[C@H]4C[C@H](O)C4)cc3)c(C(F)(F)F)c2)n[nH]1` [Compound 173, 4′-(5-amino-1H-1,2,4-triazol-3-ylamino)-2′-chloro-N-(trans-3-hydroxycyclobutyl)-6′-(trifluoromethyl)biphenyl-4-sulfonamide], the EC50 was 0.019 µM in assay [1], over 10 µM in assay [2] and 0.007 µM in assay [3].

Consider `CC(C)S(=O)(=O)c1ccc(-c2c(Cl)cc(Nc3n[nH]c(N)n3)cc2Cl)cc1` [Compound 122, N-3-[2,6-Dichloro-4′-(propane-2-sulfonyl)-biphenyl-4-yl]-1H-[1,2,4]triazole-3,5-diamine], for which the EC50 in assay [1] came to 0.024 µM; in assay [2], 12.1 µM; in assay [3], 0.004 µM.

`N#Cc1ccccc1-c1c(Cl)cc(Nc2n[nH]c(N)n2)cc1Cl` [Compound 104, 4′-(5-Amino-1H-[1,2,4]triazol-3-ylamino)-2′,6′-dichloro-biphenyl-2-carbonitrile]: the EC50 in assay [1] is 1.28 µM; in assay [2] it was 17.8 µM; in assay [3], 0.072 µM.

Consider `Nc1nc(Nc2cc(Cl)c(-c3ccc(Cl)c(Cl)c3)c(Cl)c2)n[nH]1` [Compound 102, N-3-(2,6,3′,4′-Tetrachloro-biphenyl-4-yl)-1H-[1,2,4]triazole-3,5-diamine], for which the EC50 in assay [1] stood at 0.931 µM; in assay [2], 6.33 µM; in assay [3] it was 0.062 µM.

For `Nc1nc(Nc2cc(Cl)c(-c3cccc(C(=O)O)c3)c(Cl)c2)n[nH]1` [Compound 106, 4′-(5-Amino-1H-[1,2,4]triazol-3-ylamino)-2′,6′-dichloro-biphenyl-3-carboxylic acid], the EC50 amounted to 23.4 µM in assay [1], 100 µM in assay [2] and 1.17 µM in assay [3].

In the case of `CS(=O)(=O)NCc1ccc(-c2c(Cl)cc(Nc3n[nH]c(N)n3)cc2Cl)cc1` [Compound 12, N-[4′-(5-Amino-1H-[1,2,4]triazol-3-ylamino)-2′,6′-dichloro-biphenyl-4-ylmethyl]-methanesulfonamide], the EC50 in assay [1] was 0.035 µM; in assay [2] it was 18.3 µM; in assay [3], 0.003 µM.

As to `CS(=O)(=O)Nc1cccc(-c2c(Cl)cc(Nc3n[nH]c(N)n3)cc2Cl)c1` [Compound 112, N-[4′-(5-Amino-1H-[1,2,4]triazol-3-ylamino)-2′,6′-dichloro-biphenyl-3-yl]-methanesulfonamide], the values for the EC50 in assay [1], in assay [2] and in assay [3] were 0.048 µM, 15.3 µM and 0.006 µM, respectively.

Turning to `Nc1nc(Nc2cc(Cl)c(-c3ccc(N4CCCS4(=O)=O)cc3)c(Cl)c2)n[nH]1` [Compound 289, N-3-[2,6-Dichloro-4′-(1,1-dioxo-1,6-isothiazolidin-2-yl)-biphenyl-4-yl]-1H-[1,2,4]triazole-3,5-diamine], the EC50 in assay [1] is 0.046 µM; in assay [2] it was 17.8 µM; in assay [3], 0.002 µM.

Turning to `Nc1nc(Nc2cc(Cl)c(-c3ccc4c(c3)CC(=O)N4)c(Cl)c2)n[nH]1` [Compound 254], the EC50 was 0.051 µM in assay [1], 12.9 µM in assay [2] and 0.003 µM in assay [3].

As for `CS(=O)(=O)c1ccc(-c2c(Cl)cc(Nc3n[nH]c(N)n3)cc2C(F)(F)F)cc1` [Compound 187, N3-(2-chloro-4′-(methylsulfonyl)-6-(trifluoromethyl)biphenyl-4-yl)-1H-1,2,4-triazole-3,5-diamine], the EC50 in assay [1] was determined as 0.046 µM; in assay [2] it was 1.58 µM; in assay [3], 0.016 µM.

Take `NC(=O)c1ccc(-c2c(Cl)cc(Nc3n[nH]c(N)n3)cc2Cl)cc1` [Compound 159, 4′-(5-amino-1H-1,2,4-triazol-3-ylamino)-2′,6′-dichlorobiphenyl-4-carboxamide]: the figures for the EC50 in assay [1], in assay [2] and in assay [3] were 0.164 µM, 4.62 µM and 0.005 µM, respectively.

In the case of `N#CCCCOc1ccc(-c2c(Cl)cc(Nc3n[nH]c(N)n3)cc2Cl)cc1` [Compound 26, 4-[4′-(5-Amino-1H-[1,2,4]triazol-3-ylamino)-2′,6′-dichloro-biphenyl-4-yloxy]-butyronitrile], the EC50 in assay [1] stood at 0.116 µM; in assay [2], 3.79 µM; in assay [3] it was 0.008 µM.

Consider `CC(=O)c1ccc(-c2c(Cl)cc(Nc3n[nH]c(N)n3)cc2Cl)cc1` [Compound 107, 1-[4′-(5-Amino-1H-[1,2,4]triazol-3-ylamino)-2′,6′-dichloro-biphenyl-4-yl]-ethanone], for which the EC50 in assay [1] amounted to 0.228 µM; in assay [2], 11.1 µM; in assay [3], 0.008 µM.

As to `Nc1nc(Nc2cc(Cl)c(-c3ccc(F)cc3)c(Cl)c2)n[nH]1` [Compound 286, N3-(2,6-dichloro-4′-fluorobiphenyl-4-yl)-1H-1,2,4-triazole-3,5-diamine], the results for the EC50 in assay [1], in assay [2] and in assay [3] were 0.64 µM, 13.6 µM and 0.018 µM, respectively.

For the compound `Nc1nc(Nc2cc(Cl)c(-c3ccc(S(=O)(=O)N[C@H]4CC[C@H](O)CC4)cc3)c(C(F)(F)F)c2)n[nH]1` [Compound 184, 4′-(5-amino-1H-1,2,4-triazol-3-ylamino)-2′-chloro-N-(trans-4-hydroxycyclohexyl)-6′-(trifluoromethyl)biphenyl-4-sulfonamide], the values for the EC50 in assay [1], in assay [2] and in assay [3] were 0.05 µM, over 10 µM and 0.028 µM, respectively.

As to `Nc1nc(Nc2ccc(-c3ccccc3)cc2)n[nH]1` [Compound 55, N*3*-Biphenyl-4-yl-1H-[1,2,4]triazole-3,5-diamine], the EC50 in assay [1] worked out at 100 µM; in assay [2] it was 100 µM; in assay [3], 25.1 µM.

In the case of `Nc1nc(Nc2ccc(-c3ccc(F)cc3)c(Cl)c2)n[nH]1` [Compound 145, N*3*-(2-Chloro-4′-fluoro-biphenyl-4-yl)-1H-[1,2,4]triazole-3,5-diamine], the EC50 is 6.02 µM in assay [1], 39.1 µM in assay [2] and 0.532 µM in assay [3].

In the case of `N#Cc1ccc(-c2c(Cl)cc(Nc3n[nH]c(N)n3)cc2Cl)cc1` [Compound 93, 4′-(5-Amino-1H-1,2,4-triazol-3-ylamino)-2′,6′-dichlorobiphenyl-4-carbonitrile], the figures for the EC50 in assay [1], in assay [2] and in assay [3] were 0.364 µM, 14.8 µM and 0.015 µM, respectively.

Take `CC(C)S(=O)(=O)c1ccc(-c2c(F)cc(Nc3n[nH]c(N)n3)cc2Cl)cc1` [Compound 23, N*3*-[2-Chloro-6-fluoro-4′-(propane-2-sulfonyl)-biphenyl-4-yl]-1H-[1,2,4]triazole-3,5-diamine]: the EC50 was 0.092 µM in assay [1], over 10 µM in assay [2] and 0.023 µM in assay [3].

For the compound `Nc1nc(Nc2cc(Cl)c(-c3ccc(OC[C@@H]4CCCN4)cc3)c(Cl)c2)n[nH]1` [Compound 265, N*3*-[2,6-Dichloro-4′-((S)-1-pyrrolidin-2-ylmethoxy)-biphenyl-4-yl]-1H-[1,2,4]triazole-3,5-diamine], the EC50 amounted to 0.063 µM in assay [1], 17.9 µM in assay [2] and 0.005 µM in assay [3].

Consider `Cc1ccc(-c2c(Cl)cc(Nc3n[nH]c(N)n3)cc2Cl)cc1` [Compound 97, N-3-(2,6-Dichloro-4′-methyl-biphenyl-4-yl)-1H-[1,2,4]triazole-3,5-diamine], for which the EC50 is 0.704 µM in assay [1], 9.33 µM in assay [2] and 0.007 µM in assay [3].

Turning to `CN(C)C(=O)c1cccc(-c2c(Cl)cc(Nc3n[nH]c(N)n3)cc2Cl)c1` [Compound 115, 4′-(5-Amino-1H-[1,2,4]triazol-3-ylamino)-2′,6′-dichloro-biphenyl-3-carboxylic acid dimethylamide], the EC50 worked out at 0.107 µM in assay [1], 34.8 µM in assay [2] and 0.007 µM in assay [3].

On to `CN(C)S(=O)(=O)c1ccc(-c2c(Cl)cc(Nc3n[nH]c(N)n3)cc2C(F)(F)F)cc1` [Compound 185, 4′-(5-amino-1H-1,2,4-triazol-3-ylamino)-2′-chloro-N,N-dimethyl-6′-(trifluoromethyl)biphenyl-4-sulfonamide], for which the EC50 in assay [1] is 0.052 µM; in assay [2], 11.7 µM; in assay [3], 0.015 µM.

Turning to `CNS(=O)(=O)c1ccc(-c2c(Cl)cc(Nc3n[nH]c(N)n3)cc2Cl)cc1` [Compound 118, 4′-(5-Amino-1H-[1,2,4]triazol-3-ylamino)-2′,6′-dichloro-biphenyl-4-sulfonic acid methylamide], the EC50 in assay [1] was 0.013 µM; in assay [2], 4.24 µM; in assay [3] it was 0.004 µM.

Regarding `CS(=O)(=O)Nc1ccc(-c2c(F)cc(Nc3nc(N)n[nH]3)cc2C(F)(F)F)cc1` [Compound 242, N-[4′-(5-Amino-2H-[1,2,4]-triazol-3-ylamino)-6′-fluoro-2′-trifluoromethyl-biphenyl-4-yl]-methanesulfonamide], the EC50 in assay [1] is 0.113 µM; in assay [2], over 10 µM; in assay [3], 0.061 µM.

In the case of `Nc1nc(Nc2cc(Cl)c(-c3ccccc3F)c(Cl)c2)n[nH]1` [Compound 287, N3-(2,6-dichloro-2′-fluorobiphenyl-4-yl)-1H-1,2,4-triazole-3,5-diamine], the values for the EC50 in assay [1], in assay [2] and in assay [3] were 0.366 µM, 13 µM and 0.005 µM, respectively.

Take `CNC(=O)c1cccc(-c2c(Cl)cc(Nc3n[nH]c(N)n3)cc2Cl)c1` [Compound 117, 4′-(5-Amino-1H-[1,2,4]triazol-3-ylamino)-2′,6′-dichloro-biphenyl-3-carboxylic acid methylamide]: the results for the EC50 in assay [1], in assay [2] and in assay [3] were 0.218 µM, 26.1 µM and 0.011 µM, respectively.
